# Assays:
# QPCTL = target: T1, QPCTL (Homo sapiens, UniProt Q9NXS2); assay: Enzyme activity assay (fluorescent, H-Gln-AMC / PGPEP I coupled) against QPCTL; type: biochemical; conditions: mean ± SD of three independent experiments
# T1 construct: made in house; host or cells: Escherichia coli BL21 (DE3)
# Method: The DNA with sequence coding for the human glutaminyl-peptide cyclotransferase-like protein (nucleotide entry: NP_060129) was synthesized and then inserted into the pGEX-4T-2 vector. The vector was transformed into Escherichia coli BL21 (DE3) competent cells (Tiangen Biotech, Cat. # CB105). The bacteria were grown in LB media containing ampicillin (100 μg/ mL) at 37 °C until the cell density reached an OD600 of 0.8- 0.9. The cultures were induced with 1 mM IPTG for 8- 10 h at 20 °C. The bacteria were collected and resuspended in 50 mL PBS, and 1% Triton X-100 (v/v), 1% β-mercaptoethanol (v/v), PMSF (final concentration 1 mM) were added into the mixed solution. The bacterial cells were then harvested by centrifugation (4,700 g for 30 min at 4 °C) followed by ultrasonic breaking. The resulted solution was clarified by centrifugation at 13,800 g for 30 min. GST-beads was suspended to the supernatant and was gently shook for 1 hour to bind the protein. The resulted protein solution was centrifuged at 1,500 g for 5 min and the supernatant was discarded. At least 10-fold the volume of PBS was added to the pellet to sufficiently suspend the beads in the solution. Then the solution was clarified by centrifugation at 1,500 g for 5 min and the supernatant was discarded. The above steps were repeated twice. 1 mL GST elution buffer was added to the pellet and the solution was shaken gently for 30 min following by centrifugation at 1,500 g for 5 min. The supernatant was collected and was eluted with GST elution buffer at least twice. The supernatant was loaded onto SDS-PAGE electrophoresis to detect protein purity. The protein was stored in 20% glycerol at -80 °C.
# Enzyme activity was measured by conversion of glutamine-4-amino-7-methylcounarine (H-Gln-AMC) to pyroglutamyl-AMC, which is subsequently a specific substrate for PGPEP I, releasing free AMC which can be fluorescently detected. For typical inhibition assay, 12.5 μL QPCTL protein (7 ng/μL) or QPCT protein (7 ng/μL) (MedChemExpress, Cat. #HY-P76560) and 2.5 μL of tested compounds with different concentrations were pipetted into a 384-well plate on ice. The reaction system was reacted in a shaker at 37 °C, 100 rpm for 10 minutes. Next, 10 μL fluorescent substrate H-Gln-AMC (500 μM) was added and incubated in 100 rpm for 20 min at 37 °C. […] Once done, the plate was moved over to TECAN Infinite 200PRO plate-reader to monitor and record the maximum fluorescence at 380nm excitation/ 460nm emission. The fluorescent signal value obtained was analyzed by Graphpad Prism 8.0 to obtain the inhibitory rate and IC50 of the compound.
# pGlu-CD47 [1] = assay: Flow cytometry of pGlu-CD47 (hCD47-CC2C6 binding) in HEK293T cells; type: cell-based, human; conditions: for IC50: Homo sapiens, HEK-293T, treatment 48 h, read-out: IC50, dose-dependent inhibition of pGlu-CD47
# Method: (§1) Binding to cell surface CD47 was assessed by staining cells with fluorochrome-labeled antibodies clone CC2C6 (BioLegend, Cat. # 323102) and B6H12 (Abcam, Cat. # ab134485) to human CD47 at a dilution of 1:100 in PBS containing 1% FBS (FACS buffer) for 30 min on ice, while protected from light. SIRPα binding to CD47 was assessed by incubating cells with PE labeled recombinant human SIRPα/ CD172α Protein, Fc tag (ACRO Biosystems, Cat. # SIA-HP252) or PE labeled mouse SIRPα Protein, His tag (ACRO Biosystems, Cat. # SIA-MP2H6) for 1 hour on ice, while protected from light.
# pGlu-CD47 [2] = assay: Flow cytometry of pGlu-CD47 (hCD47-CC2C6 binding) in Raji cells; type: cell-based, human; conditions: 100 nM, 48 h
# Method: as §1
# CD47/SIRPα = assay: Cell surface binding of human or mouse SIRPα protein to tumor cells (Raji, B16F10), flow cytometry; type: cell-based
# Method: as §1
# pGlu-CD47 [3] = assay: hCD47-CC2C6 binding to various cancer cells (H929, HCT116, Huh7, SKOV3, SU-DHL-8, T24, H1299, MCF-7); type: cell-based, human; conditions: 500 nM, 48 h
# Method: as §1
# CD47 = assay: Overall cell surface CD47 (hCD47-B6H12 binding) in HEK293T and Raji cells; type: cell-based, human; conditions: 100 nM, 48 h
# Method: as §1
# T1 sequence (Q9NXS2 whole entry): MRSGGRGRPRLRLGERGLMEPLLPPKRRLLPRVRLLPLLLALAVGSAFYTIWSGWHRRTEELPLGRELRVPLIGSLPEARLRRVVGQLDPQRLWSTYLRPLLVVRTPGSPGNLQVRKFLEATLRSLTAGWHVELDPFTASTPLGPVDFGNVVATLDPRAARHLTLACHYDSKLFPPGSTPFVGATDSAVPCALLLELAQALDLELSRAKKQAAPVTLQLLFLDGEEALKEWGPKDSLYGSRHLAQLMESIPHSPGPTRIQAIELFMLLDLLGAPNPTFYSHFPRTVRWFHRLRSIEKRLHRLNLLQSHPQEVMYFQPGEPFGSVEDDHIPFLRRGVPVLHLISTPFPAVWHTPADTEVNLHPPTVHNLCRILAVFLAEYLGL
Compound,IC50 (QPCTL) [nM],further results
Cn1cnnc1C1CCN(c2c(C#N)cccc2-c2ccccc2)CC1 [Compound 6],> 1000,
Cn1cnnc1C1CCN(c2c(C#N)cccc2-c2cnccc2Cl)CC1 [Compound 19],105 ± 22.3,
Cn1cnnc1C1CCN(c2c(C#N)cccc2-c2ccc(O)nc2)CC1 [Compound 20],187 ± 20.8,
Cn1cnnc1C1CCN(c2c(C#N)cccc2-c2ccoc2)CC1 [Compound 24],135 ± 64.3,
Cn1cnnc1C1CCN(c2ccccc2C#N)CC1 [Compound 8],> 1000,
Cn1cnnc1C1CCN(c2c(C#N)cccc2-c2ccc(=O)n(C)c2)CC1 [Compound 21],573 ± 85.5,
Cn1cnnc1C1CCN(c2c(C#N)cccc2-c2ccc(F)nc2)CC1 [QP5020],,"inhibitory effect on CD47 pyroglutamation compared to SEN177 and PQ912 (pGlu-CD47 [1]; 100 nM, 48 h): superior inhibitory effects; IC50 (pGlu-CD47 [1]): 6.4 ± 0.7 nM; inhibitory effect on CD47 pyroglutamation compared to SEN177 and PQ912 (pGlu-CD47 [2]): superior inhibitory effects; binding of human or mouse SIRPα protein to cell surface (CD47/SIRPα): significantly reduced; CD47 pyroglutamation in various types of cancer cells (pGlu-CD47 [3]): significantly attenuated; overall cell surface levels of CD47 (CD47): did not alter"
Cn1cnnc1C1CCN(c2c(C#N)cccc2-c2ccc(N)nc2)CC1 [Compound 12],471 ± 244,
Cc1noc(C)c1-c1cccc(C#N)c1N1CCC(c2nncn2C)CC1 [Compound 25],> 1000,
COc1ccc(-c2cccc(C#N)c2N2CCC(c3nncn3C)CC2)cn1 [Compound 13],368 ± 82,
Cc1nnc(C2CCN(c3c(C#N)cccc3-c3ccc(F)nc3)CC2)n1C [Compound 26],94.3 ± 13.9,
Cn1cnnc1C1CCN(c2c(C#N)cccc2-c2ccncc2)CC1 [Compound 7],> 1000,
"CCCOc1ccc([C@H]2CNC(=O)N2c2ccc3[nH]cnc3c2)cc1 [PQ912, reference compound]",51.8 ± 6.2,IC50 (pGlu-CD47 [1]): 988 ± 409 nM
Cn1cnnc1C1CCN(c2c(C#N)cccc2-c2ccc(C#N)nc2)CC1 [Compound 11],417 ± 210,
Cn1cnnc1C1CCN(c2c(C#N)cccc2-c2cncnc2)CC1 [Compound 9],76.5 ± 21.3,

# Second part, led by results:
IC50 (QPCTL) [nM],Compound,further results
19.6 ± 12.5,Cn1cnnc1C1CCN(c2c(C#N)cccc2-c2ccn(C)c(=O)c2)CC1 [Compound 23],
> 1000,CC(C)n1cnnc1C1CCN(c2c(C#N)cccc2-c2ccc(F)nc2)CC1 [Compound 27],
53.5 ± 11.8,Cn1cnnc1C1CCN(c2c(C#N)cccc2-c2cnccc2C(F)(F)F)CC1 [Compound 17],
> 1000,N#Cc1cccc(-c2ccc(F)nc2)c1N1CCC(c2cnc[nH]2)CC1 [Compound 29],
> 1000,COc1ccncc1-c1cccc(C#N)c1N1CCC(c2nncn2C)CC1 [Compound 16],
124 ± 9.8,Cn1cnnc1C1CCN(c2c(C#N)cccc2-c2cncc(C#N)c2)CC1 [Compound 15],
56.5 ± 11.3,Cn1cnnc1C1CCN(c2c(C#N)cccc2-c2cccnc2)CC1 [Compound 5],
74.5 ± 13.4,Cc1ccncc1-c1cccc(C#N)c1N1CCC(c2nncn2C)CC1 [Compound 18],
17.6 ± 6.2,Cn1cnnc1C1CCN(c2c(C#N)cccc2-c2cc[nH]c(=O)c2)CC1 [Compound 22],
> 1000,Cn1cnnc1C1CCN(c2c(C#N)cccc2-c2ccc(C(F)(F)F)nc2)CC1 [Compound 10],
73.6 ± 11.5,Cn1cnnc1C1CCN(c2c(C#N)cccc2-c2cncc(F)c2)CC1 [Compound 14],

# Source: PMC10721786, “Development of a potent benzonitrile-based inhibitor of glutaminyl-peptide cyclotransferase-like protein (QPCTL) with antitumor efficacy” (Signal Transduction and Targeted Therapy, 2023)
